The data set can be described thus: Diuretic activity was determined. Format: ADME, tissue-based, Urine. Further details: reference not given here.

The results in this text go back to ChEMBL document CHEMBL1141980, “Novel use of chemical shift in NMR as molecular descriptor: a first report on modeling carbonic anhydrase inhibitory activity and related parameters” (Bioorg Med Chem Lett, 2005).

Structures are written as SMILES.

On to `CC(=O)c1ccc(S(N)(=O)=O)cc1`, for which the pC turned out to be 0.398.

In turn, `Cc1cccc(S(N)(=O)=O)c1` gave a pC of 0.176.

Consider `CNc1ccc(S(N)(=O)=O)cc1`, for which the pC is given as -0.036.

As for `COc1ccc(S(N)(=O)=O)cc1`, the pC worked out at 0.188.

For the compound `Cc1ccccc1S(N)(=O)=O`, the pC is 0.301.

As for `N#Cc1ccc(S(N)(=O)=O)cc1`, the pC was 1.

`NS(=O)(=O)c1ccc(Br)cc1` gave a pC of 0.267.

`NS(=O)(=O)c1ccc([N+](=O)[O-])c(C(F)(F)F)c1` yielded a pC of 0.58.

Regarding `NS(=O)(=O)c1ccc([N+](=O)[O-])cc1`, the pC is reported as 0.824.

As to `NS(=O)(=O)c1ccccc1[N+](=O)[O-]`, the pC is reported as 0.301.

In turn, `NS(=O)(=O)c1ccc(Cl)c(Cl)c1` registered a pC of 0.243.

In turn, `NS(=O)(=O)c1cccc([N+](=O)[O-])c1` had a pC of 0.678.

The compound `NS(=O)(=O)c1ccccc1Cl` yielded a pC of 0.301.

Compound `NS(=O)(=O)c1cccc(Cl)c1` came in with a pC of 0.292.

Take `NS(=O)(=O)c1ccc(Cl)c([N+](=O)[O-])c1`: the pC was found to be 0.322.

In turn, `NS(=O)(=O)c1ccccc1` [BENZENESULFONAMIDE] came in with a pC of 0.13.

`NS(=O)(=O)c1ccc(Cl)cc1` [P-CHLOROBENZENESULFONAMIDE] displayed a pC of 0.286.

As to `Cc1ccc(S(N)(=O)=O)cc1` [P-TOLUENESULFONAMIDE], the pC was 0.182.

In the case of `Nc1ccc(S(N)(=O)=O)cc1` [SULFANILAMIDE], the pC is on record as -0.301.
